Results from BigSolDB 2.1.

CC(C)CCC[C@@H](C)[C@H]1CC[C@H]2[C@@H]3CC=C4C[C@@H](O)CC[C@]4(C)[C@H]3CC[C@]12C
solubility (mole fraction)
Conditions	in MIBK	in acetic acid	in anisole	in ethyl acetate	in methanol	in n-heptane
283.2 K	0.0101	0.00053	0.0176	0.00593	0.00021	0.00198
293.2 K	0.0142	0.0012	0.0205	0.00952	0.00042	0.00372
303.2 K	0.0272	0.00143	0.024	0.0146	0.00073	0.00609
313.2 K	0.036	0.00255	0.0325	0.0209	0.00105	0.00863
323.2 K	0.0483	0.00382	0.0442	0.033	0.00127	0.0152
